Reference: the supplement of paper PMC13380429

Legend:
Conditions in all cases: 72 h
HepG2 [1] = assay: drug sensitivity score (DSS) for viability; higher = more toxic; extreme values may be limits of the assay
Vero E6 [2] = assay: as above
Caco-2 [3] = assay: as above
Calu-3 [4] = assay: as above
U2OS [5] = assay: as above
HepG2 [6] = assay: cell viability relative to DMSO; higher = less toxic
Vero E6 [7] = assay: as above
Caco-2 [8] = assay: as above
Calu-3 [9] = assay: as above
U2OS [10] = assay: as above
HepG2 [11] = assay: relative viability EC50 (midpoint between 100% and the lowest measured viability); higher = less toxic
Vero E6 [12] = assay: as above
Caco-2 [13] = assay: as above
Calu-3 [14] = assay: as above
U2OS [15] = assay: as above

SMILES	drug sensitivity score (HepG2 [1])	drug sensitivity score (Vero E6 [2])	drug sensitivity score (Caco-2 [3])	drug sensitivity score (Calu-3 [4])	drug sensitivity score (U2OS [5])	cell viability (HepG2 [6]; 1 nM) [%]	cell viability (HepG2 [6]; 10 nM) [%]	cell viability (HepG2 [6]; 100 nM) [%]	cell viability (HepG2 [6]; 1000 nM) [%]	cell viability (HepG2 [6]; 10000 nM) [%]	cell viability (Vero E6 [7]; 1 nM) [%]	cell viability (Vero E6 [7]; 10 nM) [%]	cell viability (Vero E6 [7]; 100 nM) [%]	cell viability (Vero E6 [7]; 1000 nM) [%]	cell viability (Vero E6 [7]; 10000 nM) [%]	cell viability (Caco-2 [8]; 1 nM) [%]	cell viability (Caco-2 [8]; 10 nM) [%]	cell viability (Caco-2 [8]; 100 nM) [%]	cell viability (Caco-2 [8]; 1000 nM) [%]	cell viability (Caco-2 [8]; 10000 nM) [%]	cell viability (Calu-3 [9]; 1 nM) [%]	cell viability (Calu-3 [9]; 10 nM) [%]	cell viability (Calu-3 [9]; 100 nM) [%]	cell viability (Calu-3 [9]; 1000 nM) [%]	cell viability (Calu-3 [9]; 10000 nM) [%]	cell viability (U2OS [10]; 1 nM) [%]	cell viability (U2OS [10]; 10 nM) [%]	cell viability (U2OS [10]; 100 nM) [%]	cell viability (U2OS [10]; 1000 nM) [%]	cell viability (U2OS [10]; 10000 nM) [%]	relative viability EC50 (HepG2 [11]) [µM]	relative viability EC50 (Vero E6 [12]) [µM]	relative viability EC50 (Caco-2 [13]) [µM]	relative viability EC50 (Calu-3 [14]) [µM]	relative viability EC50 (U2OS [15]) [µM]
CN[C@@H](C)CCC=C(C)C [isometheptene-mucate]	0	0	0	0	0	96.1	101	107	94.5	95	91.1	96.2	92.5	97	104	93.4	102	93.7	93.9	106	94	100	98.1	100	108	104	96.5	98.7	103	105	> 10	> 10	> 10	> 10	> 10
N#CC(C#N)=Cc1ccc(O)c(O)c1 [tyrphostin-AG-18]	0	0	0	0	0	93	96.8	97.7	102	87.9	96.4	92.1	96.6	94.9	94.9	88.2	96.4	93.9	89.2	91.6	93.5	104	105	107	111	96.1	98.1	95.2	96.5	92.1	> 10	> 10	> 10	> 10	> 10
CCN(CC)CCN(Cc1ccc(-c2ccc(C(F)(F)F)cc2)cc1)C(=O)Cn1c(SCc2ccc(F)cc2)nc(=O)c2c1CCC2 [darapladib]	5.5	4.2	5.8	7.1	5.7	91.8	97.1	85.3	101	0.3	91.9	100	90.1	92.4	45.1	93.5	93.6	98.9	93.8	13	102	95.7	106	90.2	0.4	102	98.3	103	98.4	1.6	3.21	2.05	2.59	2.35	3.05
CC[C@H](CC[C@@H](C)[C@H]1CC[C@H]2[C@@H]3CC=C4C[C@@H](O[C@@H]5O[C@H](CO)[C@@H](O)[C@H](O)[C@H]5O)CC[C@]4(C)[C@H]3CC[C@]12C)C(C)C [daucosterol]	0	0	0	0	0	92.5	96.2	102	101	106	95.9	100	94.5	90.5	102	88.7	99.4	107	102	100	98.4	106	99.3	108	110	97.2	98.1	101	100	103	> 10	> 10	> 10	> 10	> 10
CCCNCCc1ccc(NS(=O)(=O)c2ccc(OC(F)(F)F)cc2)cc1	1.1	0	0	0	0	101	92.5	104	85.5	90	116	106	101	103	88.2	102	102	91.5	103	98.2	97.8	108	102	100	97.4	105	104	100	98.4	92.9	> 10	> 10	> 10	> 10	> 10
C[C@H](CS)C(=O)N1CCC[C@H]1C(=O)O [captopril]	0	0	0	0	0	99.5	95.7	105	95.3	108	108	100	107	100	96.6	96.1	92.8	96.8	90.9	89.6	103	111	93.4	95.4	97.4	98.6	101	94.9	98	97.3	> 10	> 10	> 10	> 10	> 10
CN(C)CCn1cc(S(=O)(=O)c2cccc(F)c2)c2cccnc21	0	0	0	0	0	106	110	91.8	103	97.5	98.6	102	101	105	97.7	98.2	102	106	98.8	103	116	94.7	90.4	97.5	95.3	103	98.3	99.9	98.2	103	> 10	> 10	> 10	> 10	> 10
